The values below come from publication PMC3432061, “Biochemical and Mass Spectrometric Characterization of Human N-Acylethanolamine-Hydrolyzing Acid Amidase Inhibition” (PLoS ONE, 2012).

Some results are limits rather than exact numbers.

Data set [1] deals with T1, hNAAA (Homo sapiens, UniProt Q02083).
T1 construct: the active mature form of the enzyme is a heterodimer, consisting of a non-covalent complex of the α- and β-subunits; hexa-histidine (C); made in house; host or cells: HEK293 (stably transfected)
T1 sequence (Q02083 126-359 limits assumed): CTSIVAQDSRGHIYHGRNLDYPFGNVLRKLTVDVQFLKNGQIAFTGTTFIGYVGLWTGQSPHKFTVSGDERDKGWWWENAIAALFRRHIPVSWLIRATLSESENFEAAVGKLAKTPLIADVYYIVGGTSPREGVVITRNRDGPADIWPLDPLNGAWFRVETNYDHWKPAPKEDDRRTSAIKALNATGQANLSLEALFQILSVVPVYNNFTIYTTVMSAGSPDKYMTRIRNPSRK
T1 sequence (Q02083 29-125 limits assumed): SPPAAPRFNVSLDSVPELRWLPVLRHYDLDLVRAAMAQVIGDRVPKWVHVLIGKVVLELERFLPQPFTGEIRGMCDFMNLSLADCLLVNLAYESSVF
Set-up: method as in PMID 22040171. The conditions noted are these: substrate of hNAAA; cited from earlier work.

In data set [2] the target is T1, hNAAA. Put plainly: Fluorometric assay to determine kinact/Ki for irreversible hNAAA inhibition. The format is biochemical. The conditions noted are these: for kinact: PAMCA 12.4 µM = 2×Km, no preincubation, read for 120 minutes; for kinact/K I: second order rate constant. As to the method:
The k inact and K I values for covalent inhibitors were determined similar to Mileni et. al. […] The data for each inhibitor concentration ([I]) were fit to a first order equation (Eq. 1) shown below using KaleidaGraph (Synergy Software, Reading, PA) in order to determine k observed (k obs), where Ft is the fluorescence at time t, F 0 is the fluorescence at t = infinite time, F 1 is the total fluorescence change, and k obs is the first order rate constant for enzyme inactivation. To determine the inhibitor dissociation constant (K I) and the first order rate constant for enzyme inactivation at infinite inhibitor concentration (k inact), the k obs values for each [I] obtained above were fit to a curve using pro Fit software and a Levenberg-Marquardt algorithm according to Eq. 2, which simplifies to Eq. 3 at [S] = 2×K m as used in this experiment. [drawing 1] (1) [drawing 2] (2) [drawing 3] (3)

Data set [3] addresses T1, hNAAA. Put plainly: 8 point fluorescent assay, hydrolysis of PAMCA by purified hNAAA. In kind it is biochemical. The conditions noted are these: for IC50: purified hNAAA, 2 hours preincubation, fluorescent assay, PAMCA 10 µM. As to the method: We previously described the fluorogenic substrate N-(4-methyl coumarin)palmitamide (PAMCA), which is hydrolyzed by NAAA to the fluorescent compound 7-amino-4-methyl coumarin (AMC) and palmitic acid. For hNAAA inhibition we conducted three point concentration assays with compounds to determine their potencies and ranges of enzyme inhibition. Purified activated NAAA (final concentration of 0.25 µg/mL) was incubated in assay buffer made up to a total volume of 180 µL, followed by addition of the compound dissolved in 10 µL DMSO (along with DMSO neat for the control sample) with the final concentrations for each compound of 1, 10, and 100 µM, in triplicate on a 96 well plate. These samples were allowed to incubate for 15 min at room temperature and then 10 µL of a PAMCA stock solution in DMSO (final PAMCA concentration 10 µM) was added. After 5 minutes of agitation on a shaking plate, the reaction was allowed to proceed at 37°C for 30 minutes and enzyme activity was monitored and calculated as previously described.
(§1) To set up 8 point fluorescent and radioactive assays for each point, the compound in 45 µL DMSO and purified activated NAAA (final enzyme concentration of 0.25 µg/mL) in 810 µL of NAAA assay buffer were incubated for 2 hours in order for the covalent compounds to reach full inhibition. For the fluorescent assays, 190 µL of each of the above samples (in triplicate) were transferred to a 96 well plate, followed by addition of 10 µL of a PAMCA stock solution in DMSO for a final PAMCA concentration of 10 µM. After 5 minutes of agitation on a shaking plate, the reaction was allowed to proceed at 37°C for 30 minutes and enzyme activity was monitored and calculated as previously described. The complete description of the novel fluorescent 8 point assay to determine the IC50 value for compounds inhibiting hNAAA activity will be detailed elsewhere.

Data set [4] has as its target T1, hNAAA. Put plainly: 8 point radioactive assay, hydrolysis of [14C]N-palmitoylethanolamine by purified hNAAA. The format is biochemical. The settings on record: 2 hours preincubation, PEA 25 µM. On the procedure: as §1
The 8 point radioactive assays, similar to that described by Saturnino et. al., [10] were performed by taking 95 µL of the enzyme-compound solution described above and adding a 5 µL solution of [^1,2 −14C]N-palmitoylethanolamine (10,000 c.p.m./sample) in DMSO, with a final PEA concentration of 25 µM. The reaction was performed for 30 minutes at 37°C and terminated by addition of 200 µL chloroform/methanol (1∶1, v/v). The aqueous layer containing the [^1,2 −14C]Ethanolamine was quantified by reading with a 1450 Microbeta Walluc Trilux Liquid Scintillation and Luminescence Counter. Inhibition constants were calculated using pro Fit software (Quantum Soft, Uetikon am See, Switzerland) and a Levenberg-Marquardt algorithm.

In data set [5] the target is T1, hNAAA. Nature of the data set: MALDI-TOF MS and MS/MS analysis of tryptic digest of inhibitor treated hNAAA. The conditions noted are these: 10-fold molar excess of compound, 37°C, 2 hours, pH 4.5. As to the method:
To 10 µg (0.2 nmol) of purified and activated NAAA in 18 µL of 100 mM citrate-sodium phosphate buffer (pH 4.5) 2 µL of a DMSO solution containing 2 nmol of the compound of interest were added or 2 µL DMSO. The inhibitor and DMSO treated enzyme solutions were incubated at 37°C for 2 hours and then desalted prior to digestion. These were desalted by re-concentrating 3 times to original volume after 25 fold dilution with 50 mM ammonium bicarbonate buffer, pH 8.0, using 10 kDa membrane Ultra-0.5 Centrifugal Filters (Millipore). The NAAA samples were incubated overnight at 37°C with MS-grade trypsin (“Trypsin Gold”, Promega) at a NAAA:trypsin mass to mass ratio of 100∶1. The tryptic digested NAAA was analyzed immediately or frozen at −80°C for future analysis.
0.5 µL of the trypsin digested NAAA was mixed with 0.5 µL α-cyano-4-hydroxycinnaminic acid matrix solution (5 mg/mL dissolved in 50% acetonitrile, 50% water, and 0.1% trifluoroacetic acid) and spotted onto an Opti-TOF 384-well plate insert. MALDI-TOF MS spectra were acquired on a 4800 MALDI TOF/TOF mass spectrometer (Applied Biosystems, Foster City, CA) fitted with a 200-Hz solid state UV laser (wavelength 355 nm). The spectra of the peptides were acquired in reflectron mode. The conditions used for the MS experiments and instrument calibration were performed as described by Zvonok et. al.

The target of data set [6] is T1, hNAAA. Put plainly: Rapid dilution experiment with hNAAA (reversibility). The format is biochemical. The conditions noted are these: AM6701: 100 nM for 120 min, twenty-fold dilution to 5 nM, up to 24 h.
The test system of the next data set is FAAH. Also noted: method as in PMID 22270809. The settings on record: cited from earlier work.
Another data set deals with recombinant rat NAAA. The conditions noted are these: substrate heptadecenoylethanolamide, HEK293 cell lysate, LC/MS based assay; cited from earlier work.
The target in data set [7] is T1, hNAAA. Nature of the data set: Lineweaver-Burk (double reciprocal) plot of hNAAA inhibition. The format is biochemical.
The target in another data set is T2, rFAAH (Rattus norvegicus, UniProt P97612).
T2 sequence (P97612 1-579): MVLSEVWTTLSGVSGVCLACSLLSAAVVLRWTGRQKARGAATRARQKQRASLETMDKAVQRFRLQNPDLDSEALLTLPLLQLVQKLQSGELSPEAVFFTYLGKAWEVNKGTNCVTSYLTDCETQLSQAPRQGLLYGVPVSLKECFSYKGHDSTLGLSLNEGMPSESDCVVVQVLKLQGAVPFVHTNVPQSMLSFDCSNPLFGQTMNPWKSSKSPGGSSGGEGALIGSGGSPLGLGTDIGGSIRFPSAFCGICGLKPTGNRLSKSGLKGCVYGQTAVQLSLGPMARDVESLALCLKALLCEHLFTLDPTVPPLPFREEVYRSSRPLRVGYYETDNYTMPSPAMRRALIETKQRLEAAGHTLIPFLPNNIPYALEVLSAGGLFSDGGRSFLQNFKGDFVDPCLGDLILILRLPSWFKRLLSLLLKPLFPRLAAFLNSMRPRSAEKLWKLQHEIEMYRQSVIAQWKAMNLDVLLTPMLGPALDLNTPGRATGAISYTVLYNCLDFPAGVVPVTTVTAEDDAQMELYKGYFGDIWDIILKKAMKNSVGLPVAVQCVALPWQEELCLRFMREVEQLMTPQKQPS
Put plainly: rFAAH inhibition (selectivity). In kind it is biochemical.

The next data set addresses T3, hMGL (Homo sapiens, UniProt Q99685).
T3 sequence (Q99685 1-303): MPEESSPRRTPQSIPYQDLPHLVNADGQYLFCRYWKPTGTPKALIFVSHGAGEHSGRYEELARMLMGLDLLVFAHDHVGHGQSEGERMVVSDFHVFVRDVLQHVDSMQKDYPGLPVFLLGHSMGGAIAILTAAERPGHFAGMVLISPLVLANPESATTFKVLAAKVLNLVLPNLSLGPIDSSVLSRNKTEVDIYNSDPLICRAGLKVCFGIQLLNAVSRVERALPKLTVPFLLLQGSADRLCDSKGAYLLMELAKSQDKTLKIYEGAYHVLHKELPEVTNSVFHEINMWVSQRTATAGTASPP
Nature of the data set: hMGL inhibition (selectivity). In kind it is biochemical.

As for `CCCCCCCCCCCCCCCC(=O)Nc1ccc2c(C)cc(=O)oc2c1` [PAMCA, N-(4-methylcoumarin)palmitamide], the Km (as a rule, the concentration of substrate that gives half-maximal velocity) at hNAAA [1] was 6.2 µM.
Consider `CN(C)C(=O)n1nnc(Cc2ccc(-c3ccccc3)cc2)n1` [AM6701, 5-((biphenyl-4-yl)methyl)-N,N-dimethyl-2H-tetrazole-2-carboxamide], for which the kinact (in general, the rate constant of inactivation at saturating inhibitor) at hNAAA [2] is 0.0007 s⁻¹. The “kinact/K I” value on hNAAA [2] was 55000 M⁻¹ s⁻¹. The “Decrease of IC50 on extension of preincubation time to 120 min” value on hNAAA [3] (hNAAA, data not presented) is “more than 50 fold”. In addition, the IC50 (usually the midpoint of a concentration-inhibition curve) was 7.7 ± 0.2 nM against hNAAA [3], 7.2 ± 2.5 nM at hNAAA [4] and 1.2 nM in the data set on FAAH. For the same compound, on hNAAA [5], the “Covalent modification of hNAAA seen by MALDI-TOF MS of tryptic digest” value (from here on “Covalent modification of hNAAA seen”) is given as “carbamylation of the N-terminal cysteine”. Besides, the “Recovery of enzyme activity after rapid dilution” value (“Recovery of enzyme activity” below) on hNAAA [6] is recorded as “no recovery of enzyme activity”.
In the case of `CCCCCCCCCCCCCCCC(=O)NCCO` [PEA, N-palmitoylethanolamine], at hNAAA [1], the Km is 21 µM.
For the compound `O=C(N[C@H]1COC1=O)OCc1ccccc1` [N-Cbz-serine β-lactone, N-Benzyloxycarbonyl-L-serine β-lactone, reference compound], the kinact on hNAAA [2] is 0.000383 s⁻¹. For the same compound, the “kinact/K I” value on hNAAA [2] is 290 M⁻¹ s⁻¹. Further, the IC50 is 1700 ± 200 nM at hNAAA [3], 1900 ± 500 nM on hNAAA [4] and 2960 ± 300 nM with recombinant rat NAAA. Further, the “Covalent modification of hNAAA seen” value at hNAAA [5] is recorded as “Cys126 modified by the inhibitor”. The “Recovery of enzyme activity” value on hNAAA [6] is given as “slow regeneration of enzyme catalytic activity”.
In the case of `CCCCCCCCCCCCCCCN=C=S` [AM9023, 1-isothiocyanatopentadecane], the “Type of inhibition (Lineweaver-Burk plot)” value at hNAAA [7] is “competitive type inhibitor”. Further, at hNAAA [3] (hNAAA), the “Effect of longer pre-incubation on IC50” value is given as “unaffected”. The IC50 on hNAAA [3] was 350 ± 70 nM; on hNAAA [4], 600 ± 130 nM; on rFAAH, above 10000 nM; on hMGL it was above 10000 nM. Further, the “Covalent modification of hNAAA seen” value at hNAAA [5] was “identical”. For the same compound, the “Recovery of enzyme activity” value on hNAAA [6] is recorded as “fully recovered”.
